The values that follow come from patent EP1379283B1, “IDENTIFICATION OF TARGET-SPECIFIC FOLDING SITES IN PEPTIDES AND PROTEINS” (Palatin Technologies, Inc., priority 2000, dated 2002).

Square brackets hold non-standard residues; d marks the D form. Ends that are not written are not given here. Nle = CCCC[C@H](N)C(=O)O; Sar = CNCC(=O)O

One test deals with T1, angiotensin-II receptor (Homo sapiens, UniProt P30556).
T1 construct: cell membranes obtained from human neuroblastoma cells (KAN-TS); endogenous in cells; host or cells: KAN-TS human neuroblastoma cells (membranes)
T1 sequence (P30556 1-359): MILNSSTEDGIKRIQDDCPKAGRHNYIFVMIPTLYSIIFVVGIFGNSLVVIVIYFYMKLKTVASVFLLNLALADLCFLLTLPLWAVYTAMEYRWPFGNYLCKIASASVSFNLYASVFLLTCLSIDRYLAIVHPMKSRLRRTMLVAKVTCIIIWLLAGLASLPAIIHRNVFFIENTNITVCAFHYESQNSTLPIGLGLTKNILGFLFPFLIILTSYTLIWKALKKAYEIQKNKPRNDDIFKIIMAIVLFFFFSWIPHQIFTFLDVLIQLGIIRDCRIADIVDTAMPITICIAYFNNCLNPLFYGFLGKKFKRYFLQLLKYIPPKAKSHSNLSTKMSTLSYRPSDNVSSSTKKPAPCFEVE
The test can be described thus: angiotensin-II receptor binding, radioiodinated angiotensin II ligand, membranes of human neuroblastoma cells (KAN-TS). As to conditions: for % Inhibition at 1 µM: KAN-TS cell membranes, 125I-Tyr4, Sar1, Ile8-Angiotensin II. As for the experimental part: The screening of compounds for binding to the angiotensin-II receptor was performed using cell membranes obtained from human neuroblastoma cells (KAN-TS). The assay was performed in triplicates, generally as described in Example 4 for oxytocin, except for measurement of receptor bound radioactivity. For angiotensin, a radioiodinated tracer ligand was used (instead of a tritiated ligand), which radioiodinated tracer facilitated direct measurement of bound radioactivity using a gamma counter. A final 1-3 nM concentration of ^125I-Tyr^4, Sar^1, Ile^8-Angiotensin II ligand (obtained from Perkin Elemer - NEN Life Sciences) was used as radiotracer and angiotensin-II (1 µM final assay concentration) was used to measure non-specific binding. After filtration of the incubation medium, followed by washings, drying the filters and punching the filters into test tubes, the filters were counted for radioactivity in a gamma counter. An activity profile for the test compounds was generated by ability to inhibit specific binding of the radiotracer to its receptor.

The target of the next test is T2, MC1-R (Mus musculus, UniProt Q01727).
T2 construct: B-16 mouse melanoma cells (containing MC1-R); endogenous in cells; host or cells: B-16 mouse melanoma cells (membranes)
T2 sequence (Q01727 whole entry): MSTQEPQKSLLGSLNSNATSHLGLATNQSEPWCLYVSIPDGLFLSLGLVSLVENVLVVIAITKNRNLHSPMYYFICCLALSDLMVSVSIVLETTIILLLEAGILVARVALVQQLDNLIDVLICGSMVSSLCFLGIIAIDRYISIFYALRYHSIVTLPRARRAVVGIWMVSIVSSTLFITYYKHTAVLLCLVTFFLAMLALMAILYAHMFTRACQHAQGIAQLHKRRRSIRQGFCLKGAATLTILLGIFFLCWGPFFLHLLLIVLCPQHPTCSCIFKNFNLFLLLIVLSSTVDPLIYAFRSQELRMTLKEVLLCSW
Kind of test: competitive inhibition binding assay with 125I-NDP-alpha-MSH, B-16 mouse melanoma cell membranes. Particulars: for % Inhibition at 1 µM MC-1: 0.4 nM 125I-NDP-alpha-MSH, B-16 mouse melanoma cell membranes, mean of triplicate; for receptor specificity MCR-1 versus MCR-4: conclusion from Table 2. How it is done: (§1) Ac-Nle-Ala-His-D-Phe-Arg-Trp-NH2 is a known receptor-binding sequence for melanotropin receptors. The K, values for binding to MCR-1 and -4 were measured to be 0.1 µM and 2 µM respectively. A series of metallopeptides based on this sequence were synthesized by inserting a Cys residue after the 2 position and through the n+1 position and complexing the resulting Cys-containing peptide with an Re-oxo metal ion core as described Example 1. The resulting metallopeptides were screened for inhibiting the binding of 125-I-NDP-alpha-MSH radioligand using B-16 mouse melanoma cells for MCR-1 and cloned human MCR-[…] and -4 receptor transfected 293 cells.
(§2) The competitive inhibition binding assay was conducted using membranes prepared from hMC3-R, hMC4-R, hMC5-R, and B-16 mouse melanoma cells (containing MC1-R) using 0.4 nM ^125I-NDP-alpha-MSH (New England Nuclear, Boston, MA, USA) in 50 mM HEPES buffer containing 1 mM MgCl2, 2 mM CaCl2, and 5 mM KCI, at pH 7.2. The assay tube also contained a chosen concentration of the test peptide of this invention, complexed to a rhenium metal ion as indicated, for determining its efficacy in inhibiting the binding of ^125I-NDP-alpha-MSH to its receptor. Non-specific binding was measured by complete inhibition of binding of ^125I-NDP-alpha-MSH in the assay with the presence of 1 µM alpha-MSH. Incubation was for 90 minutes at room temperature, after which the assay mixture was filtered and the membranes washed three times with ice cold buffer. The filter was dried and counted in a gamma counter for remaining radioactivity bound to the membranes. 100% specific binding was defined as the difference in radioactivity (cpm) bound to cell membranes in the absence and presence of 1 µM alpha-MSH. The cpm obtained in presence of test compounds were normalized with respect to 100% specific binding to determine the percent inhibition of ^125I-NDP-alpha MSH binding. Each assay was conducted in triplicate and the actual mean valves are described in Table 2.

For the next test, the target named is T3, hMC4-R (Homo sapiens, UniProt P32245).
T3 construct: expressed in transfected cells; host or cells: 293 cells
T3 sequence (P32245 whole entry): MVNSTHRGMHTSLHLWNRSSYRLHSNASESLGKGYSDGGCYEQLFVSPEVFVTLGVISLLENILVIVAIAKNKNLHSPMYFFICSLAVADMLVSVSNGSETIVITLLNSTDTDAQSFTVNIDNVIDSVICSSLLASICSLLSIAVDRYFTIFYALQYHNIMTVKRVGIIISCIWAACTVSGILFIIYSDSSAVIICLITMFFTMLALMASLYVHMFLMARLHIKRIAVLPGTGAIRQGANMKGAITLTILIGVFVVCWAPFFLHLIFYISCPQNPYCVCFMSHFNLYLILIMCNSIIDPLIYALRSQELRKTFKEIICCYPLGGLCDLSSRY
Kind of test: competitive inhibition binding assay with 125I-NDP-alpha-MSH, hMC4-R membranes. Particulars: 0.4 nM 125I-NDP-alpha-MSH, mean of triplicate. As for the experimental part:
as §1, §2

For a further test, the target named is T4, hMC3-R (Homo sapiens, UniProt P41968).
T4 construct: expressed in transfected cells; host or cells: 293 cells
T4 sequence (P41968 whole entry): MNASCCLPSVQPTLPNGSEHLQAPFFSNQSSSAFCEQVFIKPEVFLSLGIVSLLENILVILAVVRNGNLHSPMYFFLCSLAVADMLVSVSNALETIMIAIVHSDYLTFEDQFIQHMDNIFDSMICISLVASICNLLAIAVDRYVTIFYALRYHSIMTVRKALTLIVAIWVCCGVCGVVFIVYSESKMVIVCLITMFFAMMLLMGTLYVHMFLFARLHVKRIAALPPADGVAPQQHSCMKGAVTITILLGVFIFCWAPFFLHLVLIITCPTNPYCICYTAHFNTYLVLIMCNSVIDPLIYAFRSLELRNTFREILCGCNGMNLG
Kind of test: competitive inhibition binding assay with 125I-NDP-alpha-MSH, hMC3-R membranes. As to conditions: 0.4 nM 125I-NDP-alpha-MSH, mean of triplicate. How it is done: as §1, §2

The target in a further test is T5, hMC5-R (Homo sapiens, UniProt P33032).
T5 construct: expressed in transfected cells; host or cells: 293 cells are named only for 'MCR-2, -3 and -4'; for MC5-R the host is inferred
T5 sequence (P33032 whole entry): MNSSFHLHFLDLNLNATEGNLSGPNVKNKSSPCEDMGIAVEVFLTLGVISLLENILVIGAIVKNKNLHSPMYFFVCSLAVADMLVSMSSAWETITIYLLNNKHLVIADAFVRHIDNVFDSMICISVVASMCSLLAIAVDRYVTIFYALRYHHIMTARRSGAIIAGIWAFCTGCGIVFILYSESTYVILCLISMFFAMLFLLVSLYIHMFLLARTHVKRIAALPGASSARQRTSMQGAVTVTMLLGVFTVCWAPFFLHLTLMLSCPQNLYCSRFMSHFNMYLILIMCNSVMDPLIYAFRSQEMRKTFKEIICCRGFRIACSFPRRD
The test can be described thus: competitive inhibition binding assay with 125I-NDP-alpha-MSH, hMC5-R membranes. Particulars: 0.4 nM 125I-NDP-alpha-MSH, mean of triplicate. As for the experimental part:
as §2

The target of another test is T6, uPA receptor (Homo sapiens, UniProt Q03405).
T6 construct: endogenous in cells; host or cells: U937 cells
T6 sequence (Q03405 23-335): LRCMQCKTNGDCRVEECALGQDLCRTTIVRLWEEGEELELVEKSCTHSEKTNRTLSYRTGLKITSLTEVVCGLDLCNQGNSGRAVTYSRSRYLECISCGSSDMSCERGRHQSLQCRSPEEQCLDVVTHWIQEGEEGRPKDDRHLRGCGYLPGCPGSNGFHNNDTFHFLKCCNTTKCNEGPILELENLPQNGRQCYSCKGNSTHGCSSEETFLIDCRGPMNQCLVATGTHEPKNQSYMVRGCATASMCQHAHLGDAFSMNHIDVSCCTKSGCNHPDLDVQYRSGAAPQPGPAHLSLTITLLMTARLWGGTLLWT
Kind of test: uPA receptor-binding assay using U937 cells and ATF as competitive ligand. Particulars: for % Inhibition at 1 µM: 1 µM metallopeptide, U937 cells, ATF as competitive receptor binding ligand.

Take “Sar-Arg-Val-Tyr-Cys-Ile-His-Pro-Thr ([Sar]RVYCIHPT; not fully specified (bridges); printed as Sar-Arg-Val-Tyr-Cys-Ile-His-Pro-Thr; also: oxorhenium(V) metal complex) [SEQ ID NO:163]”: the “% Inhibition at 1 µM” value with angiotensin-II receptor was found to be 12%.
For Ac-[Nle]AH[dF]RCW-NH2, on MC1-R, the “% Inhibition at 1 µM MC-1” value worked out at 96% and the “receptor specificity MCR-1 versus MCR-4” value is “specific for the MCR-1 receptor but not the MCR-4 receptor”. For the same substance, the “% Inhibition at 1 µM MC-4” value on hMC4-R is 17%. Moreover, on hMC3-R, the “% Inhibition at 1 µM MC-3” value turned out to be 0%. In addition, the “% Inhibition at 1 µM MC-5” value on hMC5-R is recorded as 0%.
As for “Sar-Arg-Val-Tyr-Ile-His-Gly-Cys-Thr ([Sar]RVYIHGCT; not fully specified (bridges); printed as Sar-Arg-Val-Tyr-Ile-His-Gly-Cys-Thr; also: oxorhenium(V) metal complex) [SEQ ID NO:160]”, the “% Inhibition at 1 µM” value with angiotensin-II receptor was found to be 5%.
As to Ac-[Nle]AHC[dF]RW-NH2, the “% Inhibition at 1 µM MC-1” value at MC1-R is given as 84%. The “% Inhibition at 1 µM MC-4” value at hMC4-R was 75%. Moreover, the “% Inhibition at 1 µM MC-3” value on hMC3-R came to 9%. For the same substance, the “% Inhibition at 1 µM MC-5” value at hMC5-R is given as 58%.
In the case of “Ac-Val-Ser-Asn-Lys-Tyr-Phe-Ser-Asn-lie-His-Trp-Cys-NH2 [SEQ ID NO:12]”, the “% Inhibition at 1 µM” value in the test with uPA receptor is 0.0%.
Still for that read-out and setting: next, “Ac-Val-Ser-Asn-Lys-Tyr-Phe-Cys-Ser-Asn-Ile-His-Trp-NH2 (Ac-VSNKYFCSNIHW-NH2; not fully specified (bridges); printed as Ac-Val-Ser-Asn-Lys-Tyr-Phe-Cys-Ser-Asn-Ile-His-Trp-NH2; also: oxorhenium(V) N3S1 metal chelate (X-X-Cys)) [SEQ ID NO:8]”: 0.0%.
For the substance Ac-[Nle]AH[dF]CRW-NH2, the “% Inhibition at 1 µM MC-1” value at MC1-R is 93%. On hMC4-R, the “% Inhibition at 1 µM MC-4” value turned out to be 66%. For the same substance, the “% Inhibition at 1 µM MC-3” value at hMC3-R is recorded as 15%. The “% Inhibition at 1 µM MC-5” value on hMC5-R was 57%.
In the case of “Sar-Arg-Val-Tyr-Ile-Cys-His-Pro-Thr ([Sar]RVYICHPT; not fully specified (bridges); printed as Sar-Arg-Val-Tyr-Ile-Cys-His-Pro-Thr; also: oxorhenium(V) metal complex) [SEQ ID NO:162]”, in the test with angiotensin-II receptor, the “% Inhibition at 1 µM” value was determined as 20%.
In the case of “Ac-Val-Ser-Asn-Lys-Tyr-Phe-Ser-Cys-Asn-Ile-His-Trp-NH2 (Ac-VSNKYFSCNIHW-NH2; not fully specified (bridges); printed as Ac-Val-Ser-Asn-Lys-Tyr-Phe-Ser-Cys-Asn-Ile-His-Trp-NH2; also: oxorhenium(V) N3S1 metal chelate (X-X-Cys)) [SEQ ID NO:9]”, the “% Inhibition at 1 µM” value with uPA receptor is reported as 35.0%.
For “Ac-Val-Ser-Asn-Lys-Cys-Tyr-Phe-Ser-Asn-Ile-His-Trp-NH2 (Ac-VSNKCYFSNIHW-NH2; not fully specified (bridges); printed as Ac-Val-Ser-Asn-Lys-Cys-Tyr-Phe-Ser-Asn-Ile-His-Trp-NH2; also: oxorhenium(V) N3S1 metal chelate (X-X-Cys)) [SEQ ID NO:6]”, the “% Inhibition at 1 µM” value in the test with uPA receptor is reported as 13.0%.
As for Ac-[Nle]ACH[dF]RW-NH2, the “% Inhibition at 1 µM MC-1” value at MC1-R was found to be 96%. Moreover, the “% Inhibition at 1 µM MC-4” value on hMC4-R was found to be 71%. The “% Inhibition at 1 µM MC-3” value on hMC3-R is reported as 47%. Besides, the “% Inhibition at 1 µM MC-5” value at hMC5-R stood at 64%.
Consider “Sar-Arg-Cys-Val-Tyr-Ile-His-Pro-Thr ([Sar]RCVYIHPT; not fully specified (bridges); printed as Sar-Arg-Cys-Val-Tyr-Ile-His-Pro-Thr; also: oxorhenium(V) metal complex) [SEQ ID NO:165]”, for which the “% Inhibition at 1 µM” value with angiotensin-II receptor came to 1%.
For “Ac-Val-Ser-Cys-Asn-Lys-Tyr-Phe-Ser-Asn-Ile-His-Trp-NH2 (Ac-VSCNKYFSNIHW-NH2; not fully specified (bridges); printed as Ac-Val-Ser-Cys-Asn-Lys-Tyr-Phe-Ser-Asn-Ile-His-Trp-NH2; also: oxorhenium(V) N3S1 metal chelate (X-X-Cys)) [SEQ ID NO:4]”, the “% Inhibition at 1 µM” value with uPA receptor is given as 0.0%.
On to Ac-[Nle]AH[dF]RWC-NH2, for which, at MC1-R, the “% Inhibition at 1 µM MC-1” value is 91%; the “receptor specificity MCR-1 versus MCR-4” value was “binding both the MCR-1 and MCR-4 receptors”. Also, the “% Inhibition at 1 µM MC-4” value at hMC4-R worked out at 98%. In addition, the “% Inhibition at 1 µM MC-3” value at hMC3-R came to 70%. Moreover, the “% Inhibition at 1 µM MC-5” value at hMC5-R was 93%.
For the substance “Sar-Arg-Val-Tyr-Ile-His-Cys-Pro-Thr ([Sar]RVYIHCPT; not fully specified (bridges); printed as Sar-Arg-Val-Tyr-Ile-His-Cys-Pro-Thr; also: oxorhenium(V) metal complex) [SEQ ID NO:161]”, the “% Inhibition at 1 µM” value with angiotensin-II receptor turned out to be 60%.
In the case of “Ac-Val-Ser-Asn-Lys-Tyr-Phe-Ser-Asn-Ile-His-Cys-Trp-NH2 (Ac-VSNKYFSNIHCW-NH2; not fully specified (bridges); printed as Ac-Val-Ser-Asn-Lys-Tyr-Phe-Ser-Asn-Ile-His-Cys-Trp-NH2; also: oxorhenium(V) N3S1 metal chelate (X-X-Cys)) [SEQ ID NO:3]”, in the test with uPA receptor, the “% Inhibition at 1 µM” value was 106.0%. Besides, the “relative potency in uPA receptor binding” value with uPA receptor (compared with the other metallopeptides of Table 1) is “most potent”.
Consider “Sar-Arg-Val-Cys-Tyr-Ile-His-Pro-Thr ([Sar]RVCYIHPT; not fully specified (bridges); printed as Sar-Arg-Val-Cys-Tyr-Ile-His-Pro-Thr; also: oxorhenium(V) metal complex) [SEQ ID NO:164]”, for which the “% Inhibition at 1 µM” value in the test with angiotensin-II receptor stood at 1%.
Turning to “Ac-Val-Ser-Asn-Lys-Tyr-Phe-Ser-Asn-Cys-Ile-His-Trp-NH2 (Ac-VSNKYFSNCIHW-NH2; not fully specified (bridges); printed as Ac-Val-Ser-Asn-Lys-Tyr-Phe-Ser-Asn-Cys-Ile-His-Trp-NH2; also: oxorhenium(V) N3S1 metal chelate (X-X-Cys)) [SEQ ID NO:10]”, the “% Inhibition at 1 µM” value with uPA receptor is on record as 32.0%.
For the substance “Sar-Arg-Val-Tyr-Ile-His-Cys-Gly-Thr ([Sar]RVYIHCGT; not fully specified (bridges); printed as Sar-Arg-Val-Tyr-Ile-His-Cys-Gly-Thr; also: oxorhenium(V) metal complex) [SEQ ID NO:166]”, the “% Inhibition at 1 µM” value with angiotensin-II receptor was 11%. For the same substance, the “percent inhibition compared with SEQ ID NO:161” value in the test with angiotensin-II receptor (Gly substituted for Pro) is given as “significantly less”.
